Laboratory results: the supplement of paper PMC10307832

Key:
Test in all cases: relative viability (nuclei count vs DMSO), 5 days (fraction); higher = more cells survive
[1] = compound: CN1CCN(CC1)C2=CC(=C(C=C2)NC3=NC=C4C(=N3)N(C5=CC=CC=C5C(=O)N4C)C)OC [XMD8-85] + CS(=O)(=O)CCNCc1ccc(-c2ccc3ncnc(Nc4ccc(OCc5cccc(F)c5)c(Cl)c4)c3c2)o1 [Lapatinib] (partner 2 µM)
How it was run: (§1)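 After 5 days of treatment, lung cancer cells in 1536-well plates were fixed and stained in a single step (final 0.05% Triton X-100, 1% formaldehyde, 1 ug/ml Hoechst) and their nuclei counted on 4× images. Treatment had been applied by pin tool the day after seeding as one drug alone or as a fixed anchor-drug dose with five library-drug doses (not always all listed) in √10 steps. Relative viability is the nuclei count of treated wells divided by that of vehicle wells, and values are medians of duplicate plates.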

[2] = compound: O=C(O)C(Cc1ccccc1[N+](=O)[O-])=NNc1nc(-c2ccc(Cl)c(Cl)c2)cs1 (mixture of isomers) [4EGI-1] + C[C@@H](Oc1cc(-c2cnn(C3CCNCC3)c2)cnc1N)c1c(Cl)ccc(F)c1Cl [Crizotinib] (partner 1 µM)
How it was run: as §1

[3] = compound: CN1CCN(CC1)C2=CC(=C(C=C2)NC3=NC=C4C(=N3)N(C5=CC=CC=C5C(=O)N4C)C)OC [XMD8-85] + Cc1nc(Nc2ncc(C(=O)Nc3c(C)cccc3Cl)s2)cc(N2CCN(CCO)CC2)n1 [Dasatinib] (partner 0.075 µM)
How it was run: as §1

[4] = compound: O=C(O)C(Cc1ccccc1[N+](=O)[O-])=NNc1nc(-c2ccc(Cl)c(Cl)c2)cs1 (mixture of isomers) [4EGI-1] + O=C(c1cc(Cc2n[nH]c(=O)c3ccccc23)ccc1F)N1CCN(C(=O)C2CC2)CC1 [Olaparib] (partner 8 µM)
How it was run: as §1

Cell Line | relative viability ([1]; first compound 0.08 µM) | relative viability ([1]; first compound 0.253 µM) | relative viability ([1]; first compound 0.8 µM) | relative viability ([1]; first compound 2.53 µM) | relative viability ([1]; first compound 8 µM) | relative viability ([2]; first compound 0.5 µM) | relative viability ([2]; first compound 1.581 µM) | relative viability ([2]; first compound 5 µM) | relative viability ([2]; first compound 15.81 µM) | relative viability ([2]; first compound 50 µM) | relative viability ([3]; first compound 0.08 µM) | relative viability ([3]; first compound 0.8 µM) | relative viability ([3]; first compound 2.53 µM) | relative viability ([3]; first compound 8 µM) | relative viability ([4]; first compound 0.5 µM) | relative viability ([4]; first compound 1.581 µM) | relative viability ([4]; first compound 5 µM) | relative viability ([4]; first compound 15.81 µM) | relative viability ([4]; first compound 50 µM) | relative viability ([3]; first compound 0.253 µM)
NCI-H3122 | 1.12 | 1.01 | 1.04 | 1.09 | 0.965 | 0.274 | 0.262 | 0.281 | 0.24 | 0.221 | 0.933 | 0.984 | 0.861 | 0.794 | 0.578 | 0.554 | 0.667 | 0.448 | 0.301 | 
EPLC-272H |  | 0.824 | 1.02 | 0.905 | 0.566 | 0.929 | 0.505 | 1.03 | 0.94 | 0.947 | 0.33 | 0.4 | 0.501 | 0.25 | 0.781 | 0.42 | 0.952 | 0.436 | 0.135 | 0.253
PC-3 [JPC-3] | 0.405 | 0.466 | 0.477 | 0.492 | 0.422 | 0.998 | 0.883 | 0.876 |  | 0.55 | 0.889 | 0.939 | 1.14 | 0.997 | 1.16 |  | 1.17 | 0.526 | 0.484 | 0.932
SW 1573 | 1.1 | 1.21 | 1.02 | 1.09 | 0.885 | 0.937 | 0.842 | 0.87 | 0.722 | 0.424 | 0.466 | 0.393 | 0.499 | 0.343 | 0.529 | 0.317 | 0.672 | 0.213 | 0.113 | 0.364
NCI-H520 | 0.825 | 0.749 | 1.03 | 0.906 | 0.756 | 0.963 | 0.868 | 1.02 | 0.642 | 0.648 | 0.199 | 0.182 | 0.216 | 0.159 | 0.375 | 0.329 | 0.458 | 0.265 | 0.13 | 0.208
NCI-H1944 | 0.784 | 0.733 | 0.897 | 1.02 | 0.702 | 1.18 |  | 1.01 | 0.981 | 0.599 | 0.203 | 0.204 | 0.223 | 0.203 | 0.506 |  | 0.391 | 0.308 | 0.298 | 0.228
RERF-LC-KJ | 0.871 | 0.795 | 0.905 | 0.989 | 0.769 | 0.852 | 0.676 | 0.815 | 0.675 | 0.684 | 0.939 | 0.816 | 0.858 | 0.574 | 0.97 |  | 0.902 | 0.489 | 0.254 | 0.743
NCI-H2085 | 0.791 | 0.778 | 0.815 | 0.719 | 0.566 | 0.916 | 0.901 | 0.86 | 0.784 | 0.578 | 0.275 | 0.235 | 0.203 | 0.197 | 0.764 | 0.72 | 0.739 | 0.726 | 0.374 | 0.265
NCI-H1650 | 0.729 | 0.819 | 0.92 | 0.671 | 0.281 | 1.03 |  | 0.888 | 0.547 | 0.246 | 0.34 | 0.365 | 0.271 | 0.192 | 0.757 |  | 0.803 | 0.537 | 0.214 | 0.313
NCI-H661 | 0.486 | 0.485 | 0.404 |  | 0.473 | 0.903 |  | 0.954 | 0.903 | 0.882 | 0.81 | 0.856 | 0.834 | 0.455 | 0.765 | 0.637 | 0.584 | 0.454 | 0.336 | 0.888
NCI-H2228 | 0.827 | 0.93 | 1.14 |  | 0.549 | 0.416 | 0.508 | 0.653 | 0.502 | 0.195 | 0.451 | 0.516 | 0.398 | 0.231 | 0.947 | 0.702 | 0.693 | 0.536 | 0.128 | 0.514
CAL-12T | 0.626 |  | 0.679 | 0.678 | 0.604 | 0.663 |  | 0.742 | 0.618 | 0.281 | 0.374 | 0.431 | 0.447 | 0.225 | 0.829 | 0.484 | 0.754 | 0.751 | 0.624 | 0.363
NCI-H1437 | 0.785 | 0.888 | 0.804 | 0.792 | 0.407 | 0.931 | 0.9 | 0.77 | 0.837 | 0.315 | 0.372 | 0.398 | 0.394 | 0.282 | 0.655 | 0.625 | 0.589 | 0.395 | 0.194 | 0.364
LU99A | 1.11 | 0.96 | 1.05 | 1.06 | 0.882 | 0.657 |  | 0.677 | 0.463 | 0.215 | 0.477 | 0.61 | 0.688 | 0.388 | 0.243 | 0.212 | 0.242 | 0.193 | 0.141 | 0.675
NCI-H2347 | 0.892 | 0.958 | 0.9 | 1.02 | 0.771 | 0.841 | 0.667 | 0.753 | 0.567 | 0.556 | 0.304 | 0.289 | 0.313 | 0.489 | 0.555 | 0.487 | 0.567 | 0.607 | 0.533 | 0.332
EKVX | 0.198 | 0.217 | 0.203 | 0.209 | 0.208 | 1.01 | 0.759 | 1.14 | 0.874 | 0.936 | 0.518 | 0.478 | 0.536 | 0.475 | 0.838 |  | 0.862 | 0.692 | 0.592 | 0.545
H3255 | 0.26 | 0.237 | 0.233 | 0.243 | 0.167 | 1.14 | 0.573 | 0.856 | 0.612 | 0.541 | 0.45 | 0.353 | 0.333 | 0.335 | 0.591 | 0.501 | 0.541 | 0.5 | 0.405 | 0.325
